Values joined by “and” are separate entries in the source; they are usually repeats but may differ in a detail not shown here. Identical values can stand only once.
Key:
Assay type in all cases: cell-based
[1] = test system: A549 cells; details: 100 nM for 1 hour at 37° C.
[2] = test system: Influenza A PR8 virus
[3] = test system: Influenza A PR8 virus; details: 10 nM

Row | Structure (SMILES) | lysotracker staining [1] | protection against IAV infection (percentage of HA+ cells) [2] | effect of baloxavir marboxil treatment combined with CRISPR deletion on Influenza A virus infection ([3]; 1 nM, 5 nM) | reduction of the rate of Influenza A virus infection compared to untreated cells, according to Hemagglutinin staining [3]
1 | CO/C1=C\C(C)=C\[C@@H](C)[C@@H](O)[C@@H](C)C/C(C)=C/C=C/[C@H](OC)[C@@H]([C@@H](C)[C@@H](O)[C@H](C)[C@@]2(O)C[C@@H](O)[C@H](C)[C@@H](C(C)C)O2)OC1=O [BafA, Bafilomycin A] | a decrease in lysotracker staining was observed | further protected the KO cells against IAV infection |  | 
2 | COC(=O)OCOc1c2n(ccc1=O)N([C@@H]1c3ccccc3SCc3c1ccc(F)c3F)[C@@H]1COCCN1C2=O [baloxavir marboxil] |  |  | synergistic effect with baloxavir marboxil treatment but to a lesser extent compared to CMTR1 | 58% and 91%
